Calls of active or inactive are those of the source. No rule for the calls is given here.
Tested on: CCRIS mutagenicity, Ames/micronucleus/aberration tests
Assay: CCRIS mutagenicity studies
[1] = Test System: AMES SALMONELLA TYPHIMURIUM, Strain/Indicator: TA98, Metabolic Activation: NONE, Method: STANDARD PLATE
[2] = Test System: AMES SALMONELLA TYPHIMURIUM, Strain/Indicator: TA100, Metabolic Activation: NONE, Method: STANDARD PLATE
[3] = Test System: AMES SALMONELLA TYPHIMURIUM, Strain/Indicator: TA100, Metabolic Activation: RAT, LIVER, S-9, AROCLOR 1254, Method: STANDARD PLATE

With `CCCC(O)C(CC)CO` (stereo not given) the mutagenic call (Test System: AMES SALMONELLA TYPHIMURIUM, Strain/Indicator: TA98, Metabolic Activation: HAMSTER, LIVER, S-9, AROCLOR 1254, Method: STANDARD PLATE) was “inactive; negative”, the mutagenic call [1] was “inactive; negative” and the mutagenic call (Test System: AMES SALMONELLA TYPHIMURIUM, Strain/Indicator: TA98, Metabolic Activation: RAT, LIVER, S-9, AROCLOR 1254, Method: STANDARD PLATE) was “inactive; negative”. The mutagenic call (Test System: AMES SALMONELLA TYPHIMURIUM, Strain/Indicator: TA100, Metabolic Activation: HAMSTER, LIVER, S-9, AROCLOR 1254, Method: STANDARD PLATE) was “inactive; negative”, the mutagenic call [2] was “inactive; negative” and the mutagenic call [3] was “inactive; negative”. The mutagenic call (Test System: AMES SALMONELLA TYPHIMURIUM, Strain/Indicator: TA1535, Metabolic Activation: HAMSTER, LIVER, S-9, AROCLOR 1254, Method: STANDARD PLATE) was “inactive; negative”, the mutagenic call (Test System: AMES SALMONELLA TYPHIMURIUM, Strain/Indicator: TA1535, Metabolic Activation: NONE, Method: STANDARD PLATE) was “inactive; negative” and the mutagenic call (Test System: AMES SALMONELLA TYPHIMURIUM, Strain/Indicator: TA1535, Metabolic Activation: RAT, LIVER, S-9, AROCLOR 1254, Method: STANDARD PLATE) was “inactive; negative”. For the same compound, the mutagenic call (Test System: AMES SALMONELLA TYPHIMURIUM, Strain/Indicator: TA1537, Metabolic Activation: HAMSTER, LIVER, S-9, AROCLOR 1254, Method: STANDARD PLATE) was “inactive; negative”, the mutagenic call (Test System: AMES SALMONELLA TYPHIMURIUM, Strain/Indicator: TA1537, Metabolic Activation: NONE, Method: STANDARD PLATE) was “inactive; negative” and the mutagenic call (Test System: AMES SALMONELLA TYPHIMURIUM, Strain/Indicator: TA1538, Metabolic Activation: HAMSTER, LIVER, S-9, AROCLOR 1254, Method: STANDARD PLATE) was “inactive; negative”. For the same compound, the mutagenic call (Test System: AMES SALMONELLA TYPHIMURIUM, Strain/Indicator: TA1538, Metabolic Activation: NONE, Method: STANDARD PLATE) was “inactive; negative”, the mutagenic call (Test System: AMES SALMONELLA TYPHIMURIUM, Strain/Indicator: TA1538, Metabolic Activation: RAT, LIVER, S-9, AROCLOR 1254, Method: STANDARD PLATE) was “inactive; negative” and the mutagenic call (Test System: MOUSE LYMPHOMA, Strain/Indicator: L5178Y (TK+/TK-), Metabolic Activation: NONE, Method: SUSPENSION/PLATE) was “inactive; positive. reevaluation of results: negative”. For the same compound, the mutagenic call (Test System: MOUSE LYMPHOMA, Strain/Indicator: L5178Y (TK+/TK-), Metabolic Activation: RAT, LIVER, S-9, AROCLOR 1254, Method: SUSPENSION/PLATE) was “inactive; negative. reevaluation of results: negative”.

In the case of `CC(Br)C(=O)NCc1ccc(Cl)cc1` (stereo not given), the mutagenic call (Test System: AMES SALMONELLA TYPHIMURIUM, Strain/Indicator: TA100, Metabolic Activation: MOUSE, LIVER, S-9, AROCLOR 1254, Method: STANDARD PLATE) is reported as “active; positive” and the mutagenic call [2] is reported as “active; positive”.

`CCN(N)CC` was tested, and the mutagenic call (Test System: AMES SALMONELLA TYPHIMURIUM, Strain/Indicator: TA100, Metabolic Activation: NONE, Method: PREINCUBATION (11 HR GROWTH PERIOD FOR BACTERIA)) was “inactive; negative”, the mutagenic call [2] was “inactive; negative” and the mutagenic call [3] was “inactive; negative”. The mutagenic call (Test System: AMES SALMONELLA TYPHIMURIUM, Strain/Indicator: TA100, Metabolic Activation: RAT, LIVER, S-9, PCB, Method: PREINCUBATION (11 HR GROWTH PERIOD FOR BACTERIA)) was “inactive; negative”, the mutagenic call (Test System: AMES SALMONELLA TYPHIMURIUM, Strain/Indicator: TA102, Metabolic Activation: NONE, Method: PREINCUBATION (5 HR GROWTH PERIOD FOR BACTERIA)) was “active; positive” and the mutagenic call (Test System: AMES SALMONELLA TYPHIMURIUM, Strain/Indicator: TA102, Metabolic Activation: NONE, Method: PREINCUBATION (7 OR 11 HR GROWTH PERIOD FOR BACTERIA)) was “inactive; negative”. The mutagenic call (Test System: AMES SALMONELLA TYPHIMURIUM, Strain/Indicator: TA102, Metabolic Activation: NONE, Method: STANDARD PLATE) was “inactive; negative”, the mutagenic call (Test System: AMES SALMONELLA TYPHIMURIUM, Strain/Indicator: TA102, Metabolic Activation: RAT, LIVER, S-9, AROCLOR 1254, Method: STANDARD PLATE) was “inactive; negative” and the mutagenic call (Test System: AMES SALMONELLA TYPHIMURIUM, Strain/Indicator: TA102, Metabolic Activation: RAT, LIVER, S-9, PCB, Method: PREINCUBATION (5 OR 7 HR GROWTH PERIOD FOR BACTERIA)) was “inactive; negative”.

For `COc1cc(-c2nc(-c3ccccc3)c(-c3ccccc3)[nH]2)ccc1O`, the mutagenic call [1] was “inactive; negative”, the mutagenic call (Test System: AMES SALMONELLA TYPHIMURIUM, Strain/Indicator: TA98, Metabolic Activation: RAT LIVER S-9, 3-METHYLCHOLANTHRENE, SODIUM PHENOBARBITAL, Method: STANDARD PLATE) was “inactive; negative” and the mutagenic call [2] was “active; positive”.

`c1ccc(-c2cccnc2)nc1` was tested, and the mutagenic call (Test System: AMES SALMONELLA TYPHIMURIUM, Strain/Indicator: TA97, Metabolic Activation: RAT, LIVER, S-9, PHENOBARBITAL, Method: STANDARD PLATE) was “active; positive”, the mutagenic call (Test System: AMES SALMONELLA TYPHIMURIUM, Strain/Indicator: TA97, Metabolic Activation: RAT, LIVER, S-9, SODIUM PHENOBARBITAL, Method: PREINCUBATION) was “active; positive” and the mutagenic call (Test System: AMES SALMONELLA TYPHIMURIUM, Strain/Indicator: TA98, Metabolic Activation: RAT, LIVER, S-9, PHENOBARBITAL, Method: STANDARD PLATE) was “inactive; negative”. For the same compound, the mutagenic call (Test System: AMES SALMONELLA TYPHIMURIUM, Strain/Indicator: TA100, Metabolic Activation: RAT, LIVER, S-9, PHENOBARBITAL, Method: STANDARD PLATE) was “inactive; negative”, the mutagenic call (Test System: AMES SALMONELLA TYPHIMURIUM, Strain/Indicator: TA100, Metabolic Activation: RAT, LIVER, S-9, SODIUM PHENOBARBITAL, Method: PREINCUBATION) was “active; positive” and the mutagenic call (Test System: AMES SALMONELLA TYPHIMURIUM, Strain/Indicator: TA1535, Metabolic Activation: RAT, LIVER, S-9, PHENOBARBITAL, Method: STANDARD PLATE) was “inactive; negative”. For the same compound, the mutagenic call (Test System: AMES SALMONELLA TYPHIMURIUM, Strain/Indicator: TA1537, Metabolic Activation: RAT, LIVER, S-9, PHENOBARBITAL, Method: STANDARD PLATE) was “active; positive” and the mutagenic call (Test System: AMES SALMONELLA TYPHIMURIUM, Strain/Indicator: TA1538, Metabolic Activation: RAT, LIVER, S-9, PHENOBARBITAL, Method: STANDARD PLATE) was “inactive; negative”.

`CC(=O)N(O)c1ccc(Oc2c(Cl)cc(Cl)cc2Cl)cc1` was tested, and the mutagenic call [2] was “inactive; negative” and the mutagenic call (Test System: AMES SALMONELLA TYPHIMURIUM, Strain/Indicator: TA100, Metabolic Activation: RAT, LIVER, S-9, KANECLOR 500, Method: STANDARD PLATE) was “active; positive”.

— PubChem BioAssay AID1259407 (Chemical Carcinogenesis Research Information System (CCRIS), 2018)
